Results on 33 compounds are retold here after patent publication US20200121652A1, “COMPOUNDS HAVING CASPASE INHIBITORY ACTIVITY, PHARMACEUTICAL AGENT CONTAINING SAID COMPOUNDS AND FOR TREATING OR PREVENTING CORNEAL ENDOTHELIAL SYMPTOMS, DISORDERS, OR DISEASES, AND APPLICATION OF SAID PHARMACEUTICAL AGENT” (The Doshisha, priority 2017, published 2020).

This test deals with immortalized Fuchs' endothelial corneal dystrophy cells. Nature of the test: Concentration-dependent caspase 3/7 activity under TGF-β2 stimulation (Example 3). It counts as cell-based. Particulars: Homo sapiens, TGF-β2 10 ng/mL, 28 hours; for activity at 10 µM: agent 10 μM; for activity at 0.001 µM: agent 1 nM; for activity at 0.01 µM: agent 10 nM; for activity at 0.1 µM: agent 100 nM; for activity at 1 µM: agent 1 μM. The protocol: 7×10^3 immortalized Fuchs' endothelial corneal dystrophy cells were seeded on a 96-well plate and were cultured for 24 hours under the condition of 5% CO2 at 37° C.
After 28 hours under the condition of 5% CO2 at 37° C., cell morphology was observed using a phase difference microscope. Caspase 3/7 activity was then measured using Caspase-Glo 3/7 Assay (Promega, #G8091). DMEM+2% FBS+1% P/S was used as the medium. Caspase 3/7 activity and cell viability in this example were measured using GloMax-Multi Detection System (Promega, E7051).
Caspase 3/7 activity below 80% was used as a indicator indicating whether an agent can be used for treating or preventing a corneal endothelial condition, disorder, or disease, or whether an agent can be used as a caspase inhibitor (the underlines in FIG. 4A-1, FIG. 4A-2 and FIG. 4A-3, and FIG. 4B-1, FIG. 4B-2 and FIG. 4B-3).

Counter-ions that a name gives are not always drawn.

Consider `CC(C)C[C@H]1C(=O)N2CCC[C@H]2[C@]2(O)O[C@](NC(=O)[C@@H]3C=C4c5cccc6[nH]c(Br)c(c56)C[C@H]4N(C)C3)(C(C)C)C(=O)N12` [Bromocriptine Mesylate], for which the activity at 10 µM is ≤ 80%.

Consider `CCCC1O[C@@H]2C[C@H]3[C@@H]4CCC5=CC(=O)C=C[C@]5(C)[C@H]4[C@@H](O)C[C@]3(C)[C@]2(C(=O)CO)O1` (stereo partly drawn) [Budesonide], for which the activity at 0.001 µM is ≤ 80%, the activity at 0.01 µM was ≤ 80%, the activity at 0.1 µM was ≤ 80% and the activity at 1 µM is ≤ 80%. Moreover, the activity at 10 µM is ≤ 80%.

Regarding `CCc1nc(N)nc(N)c1-c1ccc(Cl)cc1` [Pyrimethamine], the activity at 10 µM is ≤ 80%.

Take `COc1c(C)c2c(c(O)c1C/C=C(\C)CCC(=O)O)C(=O)OC2` [Mycophenolic Acid]: the activity at 0.01 µM is ≤ 80%, the activity at 0.1 µM was ≤ 80%, the activity at 1 µM is ≤ 80% and the activity at 10 µM is ≤ 80%.

With `CC(=O)OCC(=O)[C@@]12OC3(CCCC3)O[C@@H]1C[C@H]1[C@@H]3CCC4=CC(=O)C=C[C@]4(C)[C@@]3(F)[C@@H](O)C[C@@]12C` [Amcinonide], the activity at 0.01 µM was ≤ 80%, the activity at 0.1 µM was ≤ 80%, the activity at 1 µM was ≤ 80% and the activity at 10 µM was ≤ 80%.

Consider `CC1(C)O[C@@H]2C[C@H]3[C@@H]4CCC5=CC(=O)C=C[C@]5(C)[C@@]4(F)[C@@H](O)C[C@]3(C)[C@]2(C(=O)CO)O1` [Triamcinolone Acetonide], for which the activity at 0.01 µM was ≤ 80%, the activity at 0.1 µM was ≤ 80%, the activity at 1 µM was ≤ 80% and the activity at 10 µM is ≤ 80%.

Consider `CCCC(=O)O[C@]1(C(=O)COC(C)=O)CC[C@H]2[C@@H]3C[C@H](F)C4=CC(=O)C=C[C@]4(C)[C@@]3(F)[C@@H](O)C[C@@]21C` [Difluprednate], for which the activity at 0.001 µM was ≤ 80%, the activity at 0.01 µM is ≤ 80%, the activity at 0.1 µM is ≤ 80% and the activity at 1 µM was ≤ 80%. Also, the activity at 10 µM was ≤ 80%.

As to `C[C@@H]1C[C@H]2[C@@H]3CCC4=CC(=O)C=C[C@]4(C)[C@@]3(Cl)[C@@H](O)C[C@]2(C)[C@@]1(OC(=O)c1ccco1)C(=O)CCl` [Mometasone Furoate], the activity at 0.01 µM is ≤ 80%, the activity at 0.1 µM is ≤ 80%, the activity at 1 µM was ≤ 80% and the activity at 10 µM was ≤ 80%.

`CN1CC2c3ccccc3Oc3ccc(Cl)cc3C2C1` (stereo not drawn) [Asenapine Maleate]: the activity at 10 µM was ≤ 80%.

Consider `C[C@H]1C[C@H]2[C@@H]3CCC4=CC(=O)C=C[C@]4(C)[C@@]3(F)[C@@H](O)C[C@]2(C)[C@@]1(O)C(=O)CO` [Betamethasone], for which the activity at 0.1 µM is ≤ 80%, the activity at 1 µM is ≤ 80% and the activity at 10 µM is ≤ 80%.

On to `CC(=O)Oc1ccccc1C(=O)Nc1ncc([N+](=O)[O-])s1` [Nitazoxanide], for which the activity at 10 µM was ≤ 80%.

Regarding `CCC(=O)O[C@]1(C(=O)CCl)[C@@H](C)C[C@H]2[C@@H]3CCC4=CC(=O)C=C[C@]4(C)[C@@]3(F)[C@@H](O)C[C@@]21C` [Clobetasol Propionate], the activity at 0.01 µM is ≤ 80%, the activity at 0.1 µM was ≤ 80%, the activity at 1 µM is ≤ 80% and the activity at 10 µM was ≤ 80%. Besides, the activity at 1 pM (agent 1 pM) was ≤ 80%.

For `CC1(C)O[C@@H]2C[C@H]3[C@@H]4C[C@H](F)C5=CC(=O)CC[C@]5(C)[C@H]4[C@@H](O)C[C@]3(C)[C@]2(C(=O)CO)O1` [Flurandrenolide], the activity at 0.01 µM was ≤ 80%, the activity at 0.1 µM was ≤ 80%, the activity at 1 µM was ≤ 80% and the activity at 10 µM was ≤ 80%.

For the compound `CC1(C)O[C@@H]2C[C@H]3[C@@H]4C[C@H](F)C5=CC(=O)C=C[C@]5(C)[C@@]4(F)[C@@H](O)C[C@]3(C)[C@]2(C(=O)CO)O1` [Fluocinolone Acetonide], the activity at 0.01 µM is ≤ 80%, the activity at 0.1 µM was ≤ 80%, the activity at 1 µM was ≤ 80% and the activity at 10 µM was ≤ 80%. Also, the activity at 10 pM (agent 10 pM) is ≤ 80%.

With `CC(=O)OCC(=O)[C@@]1(O)CC[C@H]2[C@@H]3CCC4=CC(=O)CC[C@]4(C)[C@@]3(F)[C@@H](O)C[C@@]21C` [Fludrocortisone Acetate], the activity at 0.1 µM is ≤ 80%, the activity at 1 µM was ≤ 80% and the activity at 10 µM was ≤ 80%.

Consider `C[C@]12C=CC(=O)C=C1CC[C@@H]1[C@@H]2[C@@H](O)C[C@@]2(C)[C@H]1CC[C@]2(O)C(=O)CO` [Prednisolone], for which the activity at 0.1 µM is ≤ 80%, the activity at 1 µM is ≤ 80% and the activity at 10 µM is ≤ 80%.

Take `CCC(=O)OCC(=O)[C@@]1(OC(=O)CC)[C@@H](C)C[C@H]2[C@@H]3CCC4=CC(=O)C=C[C@]4(C)[C@@]3(Cl)[C@@H](O)C[C@@]21C` [Beclomethasone Dipropionate]: the activity at 0.1 µM is ≤ 80%, the activity at 1 µM was ≤ 80% and the activity at 10 µM was ≤ 80%.

In the case of `CC(=O)N1CCN(c2ccc(OCC3COC(Cn4ccnc4)(c4ccc(Cl)cc4Cl)O3)cc2)CC1` (stereo not drawn) [Ketoconazole], the activity at 10 µM was ≤ 80%.

As to `CC1(C)O[C@@H]2C[C@H]3[C@@H]4CCC5=CC(=O)CC[C@]5(C)[C@@]4(F)[C@@H](O)C[C@]3(C)[C@]2(C(=O)CCl)O1` [Halcinonide], the activity at 0.01 µM was ≤ 80%, the activity at 0.1 µM is ≤ 80%, the activity at 1 µM was ≤ 80% and the activity at 10 µM is ≤ 80%.

Consider `C=C1/C(=C\C=C2/CCC[C@]3(C)[C@@H]([C@H](C)CCCC(C)(C)O)CC[C@@H]23)C[C@@H](O)C[C@@H]1O` [Calcitriol], for which the activity at 10 µM is ≤ 80%.

In the case of `COC(=O)C1=C(C)NC(C)=C(C(=O)OCC(C)C)C1c1ccccc1[N+](=O)[O-]` (stereo not drawn) [Nisoldipine], the activity at 10 µM was ≤ 80%.

For the compound `O=C1CCc2ccc(OCCCCN3CCN(c4cccc(Cl)c4Cl)CC3)cc2N1` [Aripiprazole], the activity at 10 µM was ≤ 80%.

Take `CC1(C)O[C@@H]2C[C@H]3[C@@H]4CCC5=CC(=O)C=C[C@]5(C)[C@H]4[C@@H](O)C[C@]3(C)[C@]2(C(=O)CO)O1` [Desonide]: the activity at 0.1 µM is ≤ 80%, the activity at 1 µM is ≤ 80% and the activity at 10 µM is ≤ 80%.

Consider `CO[C@H]1/C=C/O[C@@]2(C)Oc3c(C)c(O)c4c(O)c(c(/C=N/N5CCN(C6CCCC6)CC5)c(O)c4c3C2=O)NC(=O)/C(C)=C\C=C\[C@H](C)[C@H](O)[C@@H](C)[C@@H](O)[C@@H](C)[C@H](OC(C)=O)[C@@H]1C` [Rifapentine], for which the activity at 1 µM was ≤ 80%.

As for `C[C@H]1C[C@@H]2[C@H]([C@@H](O)C[C@@]3(C)[C@H]2CC[C@]3(O)C(=O)CO)[C@@]2(C)C=CC(=O)C=C12` [Methylprednisolone], the activity at 0.1 µM is ≤ 80%, the activity at 1 µM was ≤ 80% and the activity at 10 µM is ≤ 80%.

On to `CC(=O)[C@@]1(O)CC[C@H]2[C@@H]3C[C@H](C)C4=CC(=O)C=C[C@]4(C)[C@@]3(F)[C@@H](O)C[C@@]21C` [Fluorometholone], for which the activity at 0.1 µM was ≤ 80%, the activity at 1 µM is ≤ 80% and the activity at 10 µM was ≤ 80%.

Turning to `CN1C[C@H](C(=O)N[C@]2(C)O[C@@]3(O)[C@@H]4CCCN4C(=O)[C@H](Cc4ccccc4)N3C2=O)C[C@@H]2c3cccc4[nH]cc(c34)C[C@H]21` [Dihydroergotamine Mesylate], the activity at 10 µM was ≤ 80%.

Consider `C[C@@H]1C[C@H]2[C@@H]3CCC4=CC(=O)C=C[C@]4(C)[C@@]3(F)[C@@H](O)C[C@]2(C)[C@H]1C(=O)CO` [Desoximetasone], for which the activity at 0.01 µM is ≤ 80%, the activity at 0.1 µM was ≤ 80%, the activity at 1 µM is ≤ 80% and the activity at 10 µM was ≤ 80%.

With `O=C(O)c1ccc(-n2nc(-c3ccccc3O)nc2-c2ccccc2O)cc1` [Deferasirox], the activity at 10 µM is ≤ 80%.

Take `C[C@]12CC[C@@H]3c4ccc(O)cc4C[C@@H](CCCCCCCCC[S+]([O-])CCCC(F)(F)C(F)(F)F)[C@H]3[C@@H]1CC[C@@H]2O` (stereo partly drawn) [Fulvestrant]: the activity at 0.01 µM is ≤ 80%, the activity at 0.1 µM was ≤ 80%, the activity at 1 µM is ≤ 80% and the activity at 10 µM was ≤ 80%.

Regarding `COc1ccccc1OCCNCC(O)COc1cccc2[nH]c3ccccc3c12` (stereo not drawn) [Carvedilol], the activity at 10 µM is ≤ 80%.

Regarding `CO[C@H]1C[C@@H]2CC[C@@H](C)[C@@](O)(O2)C(=O)C(=O)N2CCCC[C@H]2C(=O)O[C@H]([C@H](C)C[C@@H]2CC[C@@H](OCCO)[C@H](OC)C2)CC(=O)[C@H](C)/C=C(\C)[C@@H](O)[C@@H](OC)C(=O)[C@H](C)C[C@H](C)/C=C/C=C/C=C/1C` [Everolimus], the activity at 0.01 µM was ≤ 80%, the activity at 0.1 µM was ≤ 80%, the activity at 1 µM was ≤ 80% and the activity at 10 µM is ≤ 80%.

For `COc1c(C)c2c(c(O)c1C/C=C(\C)CCC(=O)OCCN1CCOCC1)C(=O)OC2` [Mycophenolate Mofetil], the activity at 0.01 µM was ≤ 80%, the activity at 0.1 µM is ≤ 80%, the activity at 1 µM is ≤ 80% and the activity at 10 µM is ≤ 80%.
